{"source": "patent US11786481B2", "about": "“Formulation and process for modulating wound healing” (BioMendics, LLC, priority 2015, dated 2023)", "key": {"[1]": {"test_system": "full thickness excision wounds", "test": "In vivo evaluation for wound healing: full thickness excision wounds on the dorsum of mice", "text": "Example 10: In Vivo Evaluation of the LCB's for Wound Healing: Twenty, 5-6 week old Balbc/J (stock #000651) male mice were transferred to Jackson Labs in vivo research laboratory in Sacramento, Calif. The mice were ear notched for identification and housed in individually and positively ventilated polycarbonate cages with HEPA filtered air. Bed-o-cob corn cob bedding was used and cages were changed every two weeks. The animal room is lighted entirely with artificial fluorescent lighting, with a controlled 12 h light/dark cycle. The normal temperature and relative humidity ranges in the animal rooms are 22 t 4° C. and 50 t 15%, respectively. The animal rooms were set to have 15 air exchanges per hour. Filtered tap water, acidified to a pH of 2.8 to 3.1, and rodent chow was provided ad libitum. Following a 5-7 days acclimation, mice were randomized by body weight into 2 cohorts of 10 mice each. On study day 0, mice were anesthetized and two full thickness excision wounds (˜6 mm) were made on the dorsum (backs) of mice. One of the wounds was covered using a semi-occlusive polyurethane dressing (Tegaderm™). Dressings covered the wounds for 5 consecutive (5) days from the day of wounding (d 0). The doses of 4-hydroxy-4′-methoxytolan were based on those that promoted lesion healing in mice in previous herpes virus studies. Wound measurements were made on day 5, 7, 9 and 11. Digital images of wounds were taken of each mouse. Test agents were a viscous paste and wounds were surrounded with a saddle glued in place to eliminate cross contamination and wound closure due to contraction. Therefore, changes in wound area are due to re-epithelization. During the five days all wounds are covered with glycerin (control) or glycerin and test agent. At day 5, test agents were removed and changes in wound area were measured (as area/area %) in an effort to gauge the persistence of the compounds in the wound site. By day 5, glycerin produced 26.1% wound closure, whereas 4-hydroxy-4′-methoxytolan (2.5%) closed produced 92.8% wound closure and 5% 4-hydroxy-4′-methoxytolan produced 91.4% wound closure. Prior to statistical analysis a test for Normality was run and a Z-score computed to confirm a normally distributed area for each wound on day 1 for all mice across groups, r^2=0.989. Statistics are computed based One-Way ANOVA's comparing changes in wound area on day 5. All mice tolerated the treatments and all weekly clinical observations report bright, alert, responsive, and hydrated mice."}, "[2]": {"test_system": "skin (keratinocyte layer, dermis)", "test": "H&E staining of excised skin samples", "assay_type": "in vivo", "conditions": "5% (w/v)", "text": "Example 11: Excised skin samples treated with a control or with 5% (w/v) 4-hydroxy-4′-methoxytolan."}, "[3]": {"conditions": "2.5% (w/v) topical in glycerin, day 0"}, "[4]": {"conditions": "2.5% (w/v) topical in glycerin, day 5"}, "[5]": {"conditions": "2.5% (w/v) topical in glycerin, day 7"}, "[6]": {"conditions": "2.5% (w/v) topical in glycerin, day 9"}, "[7]": {"conditions": "2.5% (w/v) topical in glycerin, day 11"}, "[8]": {"conditions": "5% (w/v) topical in glycerin, day 0"}, "[9]": {"conditions": "5% (w/v) topical in glycerin, day 5"}, "[10]": {"conditions": "5% (w/v) topical in glycerin, day 7"}, "[11]": {"conditions": "5% (w/v) topical in glycerin, day 9"}, "[12]": {"conditions": "5% (w/v) topical in glycerin, day 11"}}}
{"smiles": "COc1ccc(C#Cc2ccc(O)cc2)cc1", "note": "[4-hydroxy-4′-methoxytolan]", "values": [{"measurement": "Average Area", "setting": "[1]; [3]", "value": 2.07, "unit": "cm^2"}, {"measurement": "Wound Area (%) Closed", "setting": "[1]; [3]", "value": 0, "unit": "%"}, {"measurement": "Average Area", "setting": "[1]; [4]", "value": 0.15, "unit": "cm^2"}, {"measurement": "Wound Area (%) Closed", "setting": "[1]; [4]", "value": 92.8, "unit": "%"}, {"measurement": "Average Area", "setting": "[1]; [5]", "value": 0.04, "unit": "cm^2"}, {"measurement": "Wound Area (%) Closed", "setting": "[1]; [5]", "value": 100, "unit": "%"}, {"measurement": "Average Area", "setting": "[1]; [6]", "value": 0.00, "unit": "cm^2"}, {"measurement": "Wound Area (%) Closed", "setting": "[1]; [6]", "value": 100.0, "unit": "%"}, {"measurement": "Average Area", "setting": "[1]; [7]", "value": 0.00, "unit": "cm^2"}, {"measurement": "Wound Area (%) Closed", "setting": "[1]; [7]", "value": 100.0, "unit": "%"}, {"measurement": "Average Area", "setting": "[1]; [8]", "value": 1.98, "unit": "cm^2"}, {"measurement": "Wound Area (%) Closed", "setting": "[1]; [8]", "value": 0, "unit": "%"}, {"measurement": "Average Area", "setting": "[1]; [9]", "value": 0.17, "unit": "cm^2"}, {"measurement": "Wound Area (%) Closed", "setting": "[1]; [9]", "value": 91.4, "unit": "%"}, {"measurement": "Average Area", "setting": "[1]; [10]", "value": 0.08, "unit": "cm^2"}, {"measurement": "Wound Area (%) Closed", "setting": "[1]; [10]", "value": 100, "unit": "%"}, {"measurement": "Average Area", "setting": "[1]; [11]", "value": 0.00, "unit": "cm^2"}, {"measurement": "Wound Area (%) Closed", "setting": "[1]; [11]", "value": 100.0, "unit": "%"}, {"measurement": "Average Area", "setting": "[1]; [12]", "value": 0.00, "unit": "cm^2"}, {"measurement": "Wound Area (%) Closed", "setting": "[1]; [12]", "value": 100.0, "unit": "%"}, {"measurement": "Tolerability of treatment, weekly clinical observations", "setting": "[1]; topical 2.5% and 5%, Balbc/J male mice", "value": "tolerated"}, {"measurement": "Keratinocyte proliferation", "setting": "[2]; H&E staining", "value": "extensive keratinocyte proliferation"}, {"measurement": "Keratinocyte cell layers", "setting": "[2]; control 1-2 cells thick", "value": "7-8 cells thick"}]}
